Assays:
JAM-A = assay: FD-based AFM single-virus force spectroscopy on JAM-A-coated model surfaces; assay type: binding; conditions: for change in JAM-A-T3SA− binding or multivalent interactions: 1 mM glycan injected, FIG. 6a-c
Description: (§1) NHS-PEG27-acetal linkers were used to functionalize AFM tips as described (Gruber. Crosslinkers and Protocols for AFM Tip Functionalization. https://wwwjku.at/institut-fuer-biophysik/forschung/linked, 2018; Wildling et al. Linking of sensor molecules with amino groups to aminofunctionalized AFM tips. Bioconjug. Chem. 2011, vol. 22, 1239-1248). AFM tips (PFQNM-LC and MSCT probes, Bruker) were immersed in chloroform for 10 min, rinsed with ethanol, dried with a stream of filtered nitrogen, cleaned for 10 min using an ultraviolet radiation and ozone (UV-0) cleaner (Jetlight), and immersed overnight in an ethanolamine solution (3.3 g of ethanolamine hydrochloride in 6.6 mL of DMSO). The cantilevers were washed three times with DMSO, and two times with ethanol and dried with nitrogen. To ensure a low grafting density of the linker on the AFM tip, 1 mg of acetal-PEG27-NHS was diluted in 0.5 mL of chloroform with 30 μL of […] (Gruber, supra; Wildling et al., supra). Ethanolamine-coated cantilevers were immersed for 2 h in this solution, washed three times with chloroform, and dried with nitrogen. Cantilevers were then immersed for 10 min in 1% citric acid in milliQ water, washed three times with milliQ water, and dried with nitrogen. Virus solution (80 μL at ˜10^8 to 10^9 particles mL^−1) was pipetted onto the tips placed on Parafilm (Bemis NA) in a small plastic dish stored within an icebox. A freshly prepared solution of NaCNBH3 (2 μL at ˜6% wt. in 0.1 M NaOH(aq)) was gently mixed into the virus solution, and the cantilever chips were gently positioned with the cantilevers extending into the virus drop. The icebox was incubated at 4° C. for 1 h. Then, 5 μL of 1 M ethanolamine solution (pH 8) was gently mixed into the drop to quench the reaction. […]
His6-tagged JAM-A (Bio-Connect Life Science) was immobilized using NTA-His6 binding chemistry, as described (Dupres et al. 2005, supra; Dufrêne. Life at the nanoscale: atomic force microscopy of live cells. Pan Stanford Publishing, 2011). […] The thickness was measured as described for sialic-acid-coated model surfaces.
AFM Nanoscope Multimode 8 (Bruker) was used (Nanoscope software v9.1) to conduct FD-based AFM. Virus-functionalized MSCT-D probes (with spring constants calculated using thermal tune, ranging from 0.024 to 0.043 N m^−1) (Butt & Jaschke. Calculation of thermal noise in atomic-force microscopy. Nanotechnol. 1995, vol. 6, 1-7) were used to record force curves from 5×5 μm arrays in the force-volume (contact) mode. […]

σ1-α-SA complex = target: T1, σ1-α-SA complex (Reovirus type 3, UniProt P03528); assay: FD-based AFM single-virus force spectroscopy on α-SA-coated model surfaces; assay type: binding; conditions: injection of 1 mM free glycan, FIG. 3b
T1 construct: made in house; host or cells: L929 cells (virus-infected)
T1 sequence (P03528 1-455): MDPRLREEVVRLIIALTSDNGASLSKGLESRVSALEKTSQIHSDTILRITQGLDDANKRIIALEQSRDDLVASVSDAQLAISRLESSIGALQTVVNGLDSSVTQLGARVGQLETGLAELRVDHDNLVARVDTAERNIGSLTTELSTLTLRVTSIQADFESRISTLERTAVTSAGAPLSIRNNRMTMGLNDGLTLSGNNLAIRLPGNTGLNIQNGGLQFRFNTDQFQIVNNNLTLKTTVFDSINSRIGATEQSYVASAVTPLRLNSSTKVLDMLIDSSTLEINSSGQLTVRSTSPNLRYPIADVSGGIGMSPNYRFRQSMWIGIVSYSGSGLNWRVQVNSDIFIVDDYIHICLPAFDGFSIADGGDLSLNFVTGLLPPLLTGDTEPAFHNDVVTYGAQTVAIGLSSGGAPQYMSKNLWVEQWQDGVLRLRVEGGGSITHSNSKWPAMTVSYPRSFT
Description: as §1, with “reaction. The icebox was incubated at 4° C. for an additional 10 min, and the cantilever chips were removed, washed three times in ice-cold PBS, and stored in individual wells of a multiwell dish containing 2 mL of ice-cold virus buffer (150 mM NaCl, 15 mM MgCl2, 10 mM Tris, pH adjusted to 7.4) per well until used in AFM experiments.” for “reaction.”

Compound | change in JAM-A-T3SA− binding or multivalent interactions (JAM-A) | competition with T3SA+ binding to SA (σ1-α-SA complex) | change in T3SA+ISVP-JAM-A multivalent binding behavior (JAM-A; 1 mM free glycan, FIG. 16) | effect on the overall binding of T3SA+ to JAM-A (JAM-A; 1 mM glycan, FIG. 5d)
sialyl-lacto-N-tetraose a [LSTa] | does not induce any change | strongly competed | – | –
CC(=O)N[C@H]1[C@H]([C@H](O)[C@H](O)CO)OC(O)(C(=O)O)C[C@@H]1O (stereo partly shown) [Neu5Ac, N-acetylneuraminic acid] | does not induce any change | strongly competed | does not induce any change | –
CC(=O)N[C@H]1[C@H](O[C@H]2[C@@H](O)[C@@H](CO)O[C@@H](O[C@H]3[C@H](O)[C@@H](O)C(O)O[C@@H]3CO)[C@@H]2O)O[C@H](CO)[C@@H](O[C@@H]2O[C@H](CO)[C@H](O)[C@H](O)[C@H]2O)[C@@H]1O (mixture of isomers) [LNnT, lacto-N-neotetraose, reference compound] | – | but not LNnT strongly competed | – | had no effect
